In patent EP2878677A1, “Activators of protein phosphatase 5” (Deutsches Zentrum für Neurodegenerative Erkrankungen e.V. …, priority 2013, dated 2015):

Target: T1, PPH-5 (Caenorhabditis elegans, UniProt Q9NES8)
T1 construct: made in house
T1 sequence (Q9NES8 1-496): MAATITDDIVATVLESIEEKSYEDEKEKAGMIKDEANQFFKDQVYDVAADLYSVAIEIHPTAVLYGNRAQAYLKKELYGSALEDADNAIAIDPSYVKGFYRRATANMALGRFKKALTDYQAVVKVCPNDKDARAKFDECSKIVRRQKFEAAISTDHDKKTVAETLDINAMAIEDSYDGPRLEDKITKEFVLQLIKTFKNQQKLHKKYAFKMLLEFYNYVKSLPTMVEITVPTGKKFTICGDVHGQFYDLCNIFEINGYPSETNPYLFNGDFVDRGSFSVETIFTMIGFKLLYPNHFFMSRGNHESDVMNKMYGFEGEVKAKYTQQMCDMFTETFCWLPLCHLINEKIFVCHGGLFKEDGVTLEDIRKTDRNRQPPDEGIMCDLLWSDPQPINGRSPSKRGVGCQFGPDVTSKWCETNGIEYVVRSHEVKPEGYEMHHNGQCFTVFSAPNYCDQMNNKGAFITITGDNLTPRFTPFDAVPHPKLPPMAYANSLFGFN
Assay: pNPP-based phosphatase assay with nematode PPH-5
Format: biochemical, C. elegans
Settings: for effect on the enzymatic activity of PPH-5 in the compound screen: initial screen of 15,000 compounds, pNPP, P5SAs at 50 ng/mL; for Kd: apparent KD-value in the pNPP-based assay, 20 °C
Protocol: At some instances, the present application refers to "measuring the enzymatic activity" of an enzyme. As used herein, this means that a measured value that is proportional to or reflects the enzymatic activity of that enzyme is measured. For example, the present application may refer to "measuring the enzymatic activity of protein phosphatase 5". Typically, this means that an in vitro reaction of protein phosphatase 5 with a suitable substrate is carried out.As the substrate para-nitrophenyl phosphate (pNPP) is used. The conditions for the phosphatase reaction are 40 mM HEPES/KOH, 20 mM KCl, 5 mM MnCl2, 1 mM DTT, pH 7.5. The reaction is carried out at 20° C. The starting concentration of pNPP is 60 mM. The concentration of the compound to be tested, if present, is in the range of 50-500 nM, preferably in the range of 100-250 nM, more preferably 50, 250 or 500 nM, more preferably 250 nM. As phosphatase, bacterially expressed and purified phosphatase is used. The concentration of the phosphatase in the reaction is 30 nM. The rate at which the dephosphorylation of this substrate proceeds is monitored, typically by measuring the rate of formation of the reaction product by spectroscopic measurements (dephosphorylation of pNPP, e.g., results in generation of p-nitrophenol, a chromogenic product with strong absorbance at about 410 nm (extinction coefficient ε = 15100 cm^-1M^-1), thus allowing to monitor generation of the reaction product by monitoring the absorbance at 410 nm). If the reaction is carried out in the presence of an excess of substrate, the initial velocity at which the reaction product is generated (i.e. the slope of the initial phase of the curve in a graph plotting the absorbance at 410 nm over time) is proportional to the enzymatic activity of protein phosphatase 5under the specific reaction conditions used. Alternatively, after starting the phosphatase reaction the reaction may be allowed to proceed for a defined incubation period (usually 30 minutes), then the reaction is stopped (for example by addition of a small volume of 1 M NaOH), and the absorbance at 410 nm is measured. Upon subtraction of the absorbance of a negative control (a reaction carried out with a non-functional, for example pre-boiled, phosphatase), the obtained value is proportional to the enzymatic activity of protein phosphatase 5 under the specific reaction conditions used (since the reaction is carried out in the presence of an excess of substrate and the incubation period is chosen such that the reaction is stopped while it is still in the quasi-linear Phase). Phosphatase activity was followed by the conversion of para-nitrophenyl phosphate (pNPP) to para-nitophenole and absorption of the product at 410 nm (ε: 15100 cm^-1 M^-1) in a Varian Cary 100 spectrophotometer (Agilent Technologies, Boeblingen, Germany). The reaction was measured in 40 mM HEPES/KOH, 20 mM KCl, 5 mM MnCl2, 1 mM DTT, pH 7.5 and 60 mM pNPP at 20 °C if not indicated otherwise. Phosphatase concentration ranged from 50 to 500 nM in the assay. If indicated, Hsp90/DAF-21 peptide was supplemented in the assay at a concentration of 60 μM. The protein phosphatase 5 is a highly regulated enzyme. The autoinhibition of the phosphatase is controlled by the N-terminal TPR domain and the C-terminal αJ helix, implying a complex mechanism to control the turnover rate (Yang et al., 2005). A compound screen was carried out to identify small molecules which can alter the activity of the phosphatase. The C. elegans homolog of protein phosphatase 5 was used (activity of nematode protein phosphatase 5 (PPH-5) at 20 °C: ∼0.62 sec^-1; mammalian PP5: ∼0.12 sec^-1). The homology between nematode PPH-5 and human PP5 is pronounced with a sequence conservation of almost 80% (Figure 6). Using the substrate para-nitrophenyl phosphate (pNPP), a library of 15,000 compounds was analyzed. […]

Row | SMILES | fold activation (at 714 µM) [fold] | effect on the enzymatic activity of PPH-5 in the compound screen | fold activation ((sat.)) [fold] | Kd [µM] | influence of MEEVD peptide on affinity to PPH-5 (60 µM MEEVD peptide, titration by phosphatase assay)
1 | CN1CCc2c(sc(-n3cccc3)c2CNC(=O)NC23CC4CC(CC(C4)C2)C3)C1 [P5SA-3] | 4.0 | activating effect | – | – | –
2 | COc1ccc(-c2nc(Cc3ccc(Cl)cc3)no2)cc1OC [P5SA-2] | – | activating effect | 9.6 | 7.8 ± 1.4 | –
3 | O=c1cc2nc(-c3ccc(F)cc3)nc(SCc3ccc(Br)cc3)n2[nH]1 [P5SA-4] | – | activating effect | 7.8 | 25.7 ± 5.5 | –
4 | FC(F)(F)c1c2c(nc3c(-c4ccc(Cl)cc4)cnn13)CCC2 [P5SA-1] | – | activating effect | 3.7 | 13.3 ± 4.2 | –
5 | CNC(=O)c1c(NC(=O)COCC(=O)Nc2sc3c(c2C(=O)NC)CCC3)sc2c1CCC2 [P5SA-5] | – | activating effect | 8.4 | 6.4 ± 1.8 | minor influence
